SMILES strings stand for the structures. Converted amounts (≈) assume the structure as drawn.

The conditions of the data set: buffer; pH 7.4; 200.0 µM.
One may read the kinetic solubility as solubility judged after dilution from a stock solution rather than from solid. `Cl.Clc1cccc(OCCn2ccnc2)c1` showed a kinetic solubility above 38.9 µg/mL. In turn, `Cc1cc(C)cc(OC(C)C(=O)NCCCn2ccnc2)c1` (stereo unspecified) showed a kinetic solubility of 33.4 µg/mL (≈ 111 µM). In turn, `Cc1ccc(CN2CCCC(C(=O)c3ccc4c(c3)OCO4)C2)cc1C` (stereo unspecified) registered a solubility (kinetic) of 25.4 µg/mL (≈ 72.3 µM). With `CCc1cc2c(Nc3ccccc3O)nc(C)nc2s1.Cl` the figure was below 0.2 µg/mL; with `CC(=O)c1ccc(NC(=O)COC(=O)C2CC3C=CC2C3)cc1` (stereo unspecified), above 47 µg/mL; with `CC(C)Sc1ccc([N+](=O)[O-])cc1C(=O)Nc1ccncc1`, 40.8 µg/mL (≈ 129 µM). With `Brc1ccc(-c2nc(-c3ccncc3)no2)cc1` the figure was below 0.2 µg/mL; with `O=C(NC(=S)Nc1ccccc1C(=O)O)c1ccc2ccccc2c1`, 38.2 µg/mL (≈ 109 µM). The result for `COc1cc(C(=O)OCC(=O)N2CCCCCC2)c([N+](=O)[O-])cc1OC` reads above 55 µg/mL. For `COC(=O)c1ccc(COC(=O)CNC(=O)C2CCCCC2)cc1`, the kinetic solubility amounted to 16.3 µg/mL (≈ 48.9 µM).

With `Cc1cccn2c(=O)c(/C=N/O)c(Nc3ccccc3F)nc12`, the solubility (kinetic) came out at 0.2 µg/mL (≈ 0.64 µM). The molecule `OC(CN1CCOCC1)Cn1c2ccccc2c2ccccc21` (stereo unspecified) showed a solubility (kinetic) above 46.6 µg/mL.

The molecule `N#Cc1ccncc1Sc1ccc(Cl)cc1` came in with a solubility (kinetic) of 25.3 µg/mL (≈ 103 µM). With `COC(=O)c1ccc(NC(=O)C2CC3CCC2C3)cc1` (stereo unspecified) the figure was 8.1 µg/mL (≈ 29.6 µM); with `O=C(NCc1cccs1)C1CCCN(C(=O)Nc2ccccc2)C1` (stereo unspecified), 21.7 µg/mL (≈ 63.2 µM); with `CC(=NCCCO)c1c(O)[nH]c(=O)[nH]c1=O`, above 34.1 µg/mL. `Cc1onc(-c2ccccc2)c1NC(=O)N(Cc1ccccc1)C(C)C` registered a kinetic solubility of 22.7 µg/mL (≈ 65 µM). As for `COc1ccc(NC(=O)C2C3CCC(O3)C2C(=O)O)cc1OC` (stereo unspecified), the kinetic solubility was above 48.2 µg/mL.

In turn, `O=C(Nc1cc2c(cc1Br)OCCCO2)c1cccnc1` showed a solubility (kinetic) above 52.4 µg/mL. Turning to `Cc1cc(C(=O)CN2C(=O)NC(C)(c3cc(F)ccc3F)C2=O)c(C)n1C1CC1` (stereo unspecified), the kinetic solubility was 48.9 µg/mL (≈ 122 µM).

The molecule `COc1ccc(CCC(=O)OCC(=O)NCc2ccc(OC)c(OC)c2)cc1OC` displayed a solubility (kinetic) above 62.6 µg/mL.

The molecule `O=C(NCc1ccccc1Cl)c1cnccc1C(F)(F)F` showed a solubility (kinetic) above 47.2 µg/mL. The result for `O=C(Nc1nc(-c2cccnc2)cs1)c1cccc([N+](=O)[O-])c1` reads 0.9 µg/mL (≈ 2.76 µM); that for `CC(C)[C@H](NC(=O)c1ccccc1Cl)C(=O)OCC(=O)Nc1ccc(S(=O)(=O)N2CCOCC2)cc1`, 40.3 µg/mL (≈ 74.9 µM). The result for `CCOC(=O)Cc1csc(NC(=O)Nc2ccc(OC(F)(F)F)cc2)n1` reads 0.3 µg/mL (≈ 0.771 µM); that for `CS(=O)(=O)c1ccc(NCC2CCCO2)c([N+](=O)[O-])c1` (stereo unspecified), above 45 µg/mL; that for `N#C/C(=C\c1ccc(Cl)cc1)C(=O)NC1CC1`, 5 µg/mL (≈ 20.3 µM). With `CC(C)(C)c1csc(Sc2ccc([N+](=O)[O-])cn2)n1` the figure was 1.1 µg/mL (≈ 3.72 µM). `Cc1ccc(/C(N)=N/OC(=O)c2ccc3ccccc3c2)cc1` displayed a kinetic solubility of 1 µg/mL (≈ 3.29 µM). With `Cc1cccc(C(=O)OCC(=O)NCC(C)C)c1O` the figure was 13.6 µg/mL (≈ 51.3 µM); with `CC(C)(C)NC(=O)N1c2ccccc2Sc2ccccc21`, 23 µg/mL (≈ 77.1 µM). Consider `O=C(CCNC(=O)c1ccco1)NCc1ccc(C(=O)O)cc1`, for which the solubility (kinetic) is above 47.4 µg/mL. `COc1ccc(CCC(=O)N2CCN(c3cccc(C)c3C)CC2)cc1` registered a kinetic solubility of 17.3 µg/mL (≈ 49.1 µM).

For the molecule `CCNC(=S)N1CCN(S(=O)(=O)/C=C/c2ccccc2)CC1`, the kinetic solubility was found to be 4.2 µg/mL (≈ 12.4 µM). Take `N#Cc1ccc(CSc2ncccn2)cc1`: the solubility (kinetic) was above 34.1 µg/mL. `Cc1ccc(NC(=O)CN(C)C(=O)/C=C/c2cccc(F)c2)cc1` returned a kinetic solubility of 2.2 µg/mL (≈ 6.74 µM). The result for `Cl.Nc1ccn([C@H]2C[C@H](O)[C@@H](CO)O2)c(=O)n1` reads above 39.6 µg/mL; that for `COc1cc(OC)c(C(=O)N2CCCC2)cc1OC`, above 39.8 µg/mL. `CN1C2CCC1CC(OC(c1ccccc1)c1ccccc1N)C2` (stereo unspecified) came in with a kinetic solubility above 48.4 µg/mL. The result for `O=C(COc1ccc([N+](=O)[O-])cc1Cl)Nc1ccc2[nH]c(=O)[nH]c2c1` reads 7.5 µg/mL (≈ 20.7 µM); that for `CCN(CC(=O)Nc1ccc(C)c(F)c1)CC(=O)NC(C)C`, above 46.4 µg/mL. With `COc1ccc(N2CCN(C(=O)CN3c4cccc5cccc(c45)S3(=O)=O)CC2)cc1` the figure was 2.3 µg/mL (≈ 5.26 µM); with `O=[N+]([O-])c1cccc2c(S(=O)(=O)N3CCOCC3)cccc12`, 35.4 µg/mL (≈ 110 µM); with `O=C1N(c2ccccc2)C[C@@H]2C[C@@H](c3cccs3)N3CCC[C@@]123`, 41.8 µg/mL (≈ 129 µM). On to `CCOC(=O)NC(=O)/C(C#N)=C/c1ccc(N(C)C)cc1`, for which the solubility (kinetic) turned out to be 15.1 µg/mL (≈ 52.6 µM). With `Cc1ccc(S(=O)(=O)N2CC=C(C(=O)NC3CC3)CC2)cc1` the figure was 40.5 µg/mL (≈ 126 µM); with `CCC1CCCCN1C(=O)CSc1nc(N)cc(=O)[nH]1` (stereo unspecified), 42.2 µg/mL (≈ 142 µM); with `O=C(NC1CCCCC1)[C@@H]1CSC2c3ccccc3C(=O)N21` (stereo partly specified), 47 µg/mL (≈ 149 µM). The result for `O=C(NCCNC(=O)c1ccco1)c1ccc(Cl)c(Cl)c1` reads 44.7 µg/mL (≈ 137 µM); that for `Nc1nc(CCl)nc(Nc2ccc3ccccc3c2)n1`, 29.3 µg/mL (≈ 103 µM). Turning to `COCc1c(C(=O)OCC(=O)Nc2ccc(OC(F)F)cc2)oc2ccccc12`, the solubility (kinetic) stood at 13.4 µg/mL (≈ 33.1 µM). With `Nc1nc(SCC(=O)Nc2ccc([N+](=O)[O-])cc2)n[nH]1` the figure was above 44.1 µg/mL. `COC(=O)c1nn(-c2ccc(C)cc2)ccc1=O` had a solubility (kinetic) above 36.6 µg/mL. With `Cc1cccc(N2CCN(C(=O)c3ccc4nccnc4c3)CC2C)c1` (stereo unspecified) the figure was above 52 µg/mL.

In turn, `COc1cccc(/C=N/c2nc3ccccc3[nH]2)c1O` showed a kinetic solubility of 33.2 µg/mL (≈ 124 µM). The result for `Cc1sc(N2C(=O)C3C(C2=O)[C@H]2C=C[C@@H]3C2)c(C#N)c1C` (stereo partly specified) reads 25.6 µg/mL (≈ 85.8 µM); that for `CCCc1cc(=O)oc2c(CN(CC)CC)c(O)c(Cl)cc12`, above 48.6 µg/mL. With `COc1ccc2nc(NCc3cccnc3)sc2c1` the figure was above 40.7 µg/mL; with `N/C(=N\OC(=O)/C=C/c1ccccc1Cl)c1cccnc1`, 14.9 µg/mL (≈ 49.4 µM).

Turning to `N#Cc1ccc(Cl)cc1NC(=O)CSc1cccc[n+]1[O-]`, the kinetic solubility is above 48 µg/mL.

Molecule `Cc1ccc(NC(=S)Nc2ccc(OC(F)F)c(Cl)c2)cc1F` showed a kinetic solubility of 3.5 µg/mL (≈ 9.7 µM). The result for `O=C(NCCCNC(=O)c1ccco1)c1ccc(F)cc1` reads 42.7 µg/mL (≈ 147 µM); that for `O=C(Nc1cccc(-c2cn3c(n2)SCC3)c1)c1ccc2c(c1)OCO2`, 18.1 µg/mL (≈ 49.5 µM); that for `COc1cccc(C(=O)OCC(=O)Nc2ccc3c(c2)OCCO3)c1`, 8 µg/mL (≈ 23.3 µM). `O=C(O)CC1S/C(=N/N=C/c2ccccn2)NC1=O` (stereo unspecified) came in with a kinetic solubility above 41.7 µg/mL. With `N=c1oc2cc(O)ccc2cc1C(=O)Nc1ccc(F)cc1`, the solubility (kinetic) stood at 1.5 µg/mL (≈ 5.03 µM). For `CCOc1ccc(NC(=S)NC(=O)c2cccnc2)c([N+](=O)[O-])c1`, the kinetic solubility came out at 4.3 µg/mL (≈ 12.4 µM). `Cc1ccc2nc(SCC(=O)NCc3cccs3)[nH]c2c1` registered a kinetic solubility above 47.6 µg/mL. The result for `CC(NC(=O)Nc1ccc(F)cc1F)c1ccc2c(c1)OCO2` (stereo unspecified) reads 2.4 µg/mL (≈ 7.49 µM); that for `Cc1ccc(C)c(NC(=O)CCN2CCCC(C)C2)c1` (stereo unspecified), 38.5 µg/mL (≈ 140 µM). With `CC1CN(CC(=O)NC(C)c2ccccc2)CC(C)O1` (stereo unspecified) the figure was above 41.5 µg/mL; with `Cc1ccc(NC(=O)COC(=O)C2(CC(=O)NC(C)(C)C)CCCC2)cc1C`, 2.5 µg/mL (≈ 6.43 µM); with `O=S(=O)(NCC1CCCO1)c1ccc(Cl)nc1` (stereo unspecified), above 41.5 µg/mL. With `O=C(Cc1cccc2ccccc12)Nc1ccc(N2CCOCC2)cc1` the figure was 1.7 µg/mL (≈ 4.91 µM); with `CCN(C(=O)CSc1nccc(=O)[nH]1)c1cccc2ccccc12`, above 50.9 µg/mL. `Cc1ccc(NC(=O)COC(=O)CC2CCCC2)cc1F` had a kinetic solubility of 29.5 µg/mL (≈ 101 µM). With `O=C(NCCc1ccc(F)cc1)c1cc(=O)c2ccccc2o1` the figure was 9.4 µg/mL (≈ 30.2 µM); with `CC(=O)c1ccc(NC(=O)Nc2cccnc2)cc1`, 32.4 µg/mL (≈ 127 µM); with `O=C(/C=C/c1ccc(Cl)cc1)Nc1ccc(N2CCOCC2)cc1`, below 0.4 µg/mL.

For the molecule `CCc1cccc(C)c1NC(=S)N(CCOC)C(C)c1ccco1` (stereo unspecified), the kinetic solubility came to 25.8 µg/mL (≈ 74.5 µM). Molecule `O=C(NCCc1csc(-c2ccccc2)n1)c1ccco1` came in with a kinetic solubility of 42.4 µg/mL (≈ 142 µM). For `Cc1nc(CSc2ccc(Cl)cc2)cs1`, the solubility (kinetic) stood at 6.9 µg/mL (≈ 27 µM).

The molecule `COc1ccccc1N1CCN(S(=O)(=O)c2ccc(Cl)cc2)CC1` showed a kinetic solubility of 4 µg/mL (≈ 10.9 µM). As to `CC(C)(C)c1cc(C(=O)N2CCc3ccccc3C2)ccn1`, the kinetic solubility is above 44.2 µg/mL. Take `Cc1nc2ccc(Br)cc2c(-c2ccccc2)c1C(=O)O`: the solubility (kinetic) was above 51.3 µg/mL. `Cc1ccccc1C1NC(c2ccccc2C)C([N+](=O)[O-])C(C)(C)C1[N+](=O)[O-]` (stereo unspecified) registered a solubility (kinetic) of 0.3 µg/mL (≈ 0.782 µM). Molecule `CCNC(=O)COC(=O)c1cc(C)nc2ccccc12` returned a kinetic solubility above 40.8 µg/mL. The result for `O=C(c1ccncc1)c1ccc([N+](=O)[O-])cc1` reads above 34.2 µg/mL; that for `CCC(C(=O)NCc1ccc(C)cc1)c1ccccc1` (stereo unspecified), 20.2 µg/mL (≈ 75.6 µM). The result for `CC(CCc1ccccc1)NC(=O)CSc1cccc[n+]1[O-]` (stereo unspecified) reads 40.6 µg/mL (≈ 128 µM); that for `CC(=O)N1CCn2c3c(c4cc(C)ccc42)CCCC31` (stereo unspecified), 38.6 µg/mL (≈ 144 µM); that for `O=C(NCc1ccncc1)Nc1cccc([N+](=O)[O-])c1`, above 40.8 µg/mL.

In turn, `CCOCCCNc1c(CC)c(C)c(C#N)c2nc3ccccc3n12` displayed a kinetic solubility of 6.5 µg/mL (≈ 19.3 µM). With `CC(C)(C)NCC(O)COc1cccc2c1C[C@H](O)[C@H](O)C2` (stereo partly specified) the figure was above 46.4 µg/mL. In turn, `CCS(=O)(=O)N1CCN(c2ncnc3sc(C)c(C)c23)CC1` showed a solubility (kinetic) above 51.1 µg/mL. In turn, `COc1ccc(NC(=O)COC(=O)c2ccc3ccccc3n2)cc1OC` registered a solubility (kinetic) of 6.7 µg/mL (≈ 18.3 µM). As to `COc1ccc(/C=N\Nc2ncc(F)c(N3CCOCC3)n2)cc1OC`, the solubility (kinetic) was above 54.2 µg/mL. With `COc1ccc(C)cc1COC(=O)c1[nH]c(C)c(C(C)=O)c1C` the figure was above 47.3 µg/mL; with `CN1CCC(N(C)C(=S)NCCc2ccccc2)CC1`, above 43.7 µg/mL. The molecule `O=C(CSCc1ccc(Br)cc1)NC1CC1` showed a solubility (kinetic) of 38.7 µg/mL (≈ 129 µM).

`CCc1ccc2[nH]c(C(=O)Nc3ccc(F)cc3Br)cc2c1` yielded a solubility (kinetic) of 0.9 µg/mL (≈ 2.49 µM).

These data come from PubChem BioAssay AID1996.
